Experimental data reported in patent publication US20170219562A1, “EPIGENETIC COMPOUND SCREENING PLATFORM” (Legacy Emanuel Hospital & Health Center, priority 2016, published 2017).

Columns and labels:
ADK-L cells = assay: 5-methylcytosine (5-mC) ELISA of genomic DNA from treated ADK-L cells; assay type: cell-based; conditions: compound at its IC50, genomic DNA isolated 24 hours after treatment, 100 ng DNA, n=8-9
Procedure: The IC50 for each ADK inhibitor was selected as the treatment dose. Total genomic DNA was isolated 24 hours after treatment and 100 ng of purified DNA was run on a 5-methylcytosine (5-mC) ELISA (Zymo Research Corp.) to quantify 5-methylcytosine. […] Data are represented as the mean±SEM (n=8-9). Statistical analysis is a One-way ANOVA (F(4,37)=2.95, p=0.033) followed by uncorrected Fisher's LSD post hoc test.
The IC50 of CBZ was selected as the treatment dose. Total genomic DNA was isolated 24 hours after treatment, and 100 ng of purified DNA was run on a 5-methylcytosine (5-mC) ELISA (Zymo Research Corp) to determine the amount of 5-methylcytosine. […] Data are represented as the mean±SEM (n=8-9). Statistical analysis is a One-way ANOVA for Panel A (F(2,23)=5.67, p=0.0099) followed by uncorrected Fisher's LSD post hoc test and Kruskal-Wallis test for Panel B (Kruskal-Wallis statistic=1.11, p=0.57).

ADK = ADK (Homo sapiens, UniProt P55263); conditions: cited from earlier work; for IC50: used as treatment dose, read-out: IC50 of ADK inhibitor
Sequence of ADK (P55263 whole entry, species assumed): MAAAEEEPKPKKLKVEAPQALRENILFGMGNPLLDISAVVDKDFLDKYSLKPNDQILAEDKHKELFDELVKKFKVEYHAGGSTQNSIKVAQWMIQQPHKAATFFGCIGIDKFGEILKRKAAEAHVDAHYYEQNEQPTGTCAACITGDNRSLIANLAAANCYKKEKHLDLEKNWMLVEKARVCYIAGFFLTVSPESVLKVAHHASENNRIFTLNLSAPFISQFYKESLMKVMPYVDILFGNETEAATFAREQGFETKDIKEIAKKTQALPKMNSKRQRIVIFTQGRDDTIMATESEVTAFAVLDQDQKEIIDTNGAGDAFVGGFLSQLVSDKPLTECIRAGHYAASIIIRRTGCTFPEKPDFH

ADK-S cells = assay: 5-methylcytosine (5-mC) ELISA of genomic DNA from treated ADK-S cells; assay type: cell-based; conditions: for DNA methylation levels in ADK-S cells compared to vehicle-treated ADK-S cells: compound at its IC50, 24 hours after treatment, n=4-9
Procedure: 100 ng of purified genomic DNA was run on a 5-methylcytosine (5-mC) ELISA (Zymo Research Corp.) to quantify 5-methylcytosine.
FIG. 8 is a pair of bar graphs plotting the amount of 5-methylcytosine detected in genomic DNA isolated from the ADK-null cell line (Panel A) and the ADK-S cell line (Panel B) of FIG. 3, in the absence or presence of various ADK inhibitors, with each amount normalized with respect to the amount detected for vehicle-treated ADK-null cells. ADK-null and ADK-S cells identify off target effects of ADK inhibitors on DNA methylation levels. […] The IC50 for each ADK inhibitor was selected as the treatment dose. Total genomic DNA was isolated 24 hours after treatment, and 100 ng of purified DNA was run on a 5-methylcytosine (5-mC) ELISA (Zymo Research Corp) to determine the amount of 5-methylcytosine. […] Data are represented as the mean±SEM (n=4-9). Statistical analysis is a One-way ANOVA followed by uncorrected Fisher's LSD post hoc test.
FIG. 9 is a pair of bar graphs plotting the amount of 5-methylcytosine detected in genomic DNA isolated from the ADK-L cell line (Panel A) and the ADK-S cell line (Panel B) of FIG. 3, in the absence or presence of carbamazepine, with vehicle-treated ADK-null cells as a control. […] The IC50 of CBZ was selected as the treatment dose. Total genomic DNA was isolated 24 hours after treatment, and 100 ng of purified DNA was run on a 5-methylcytosine (5-mC) ELISA (Zymo Research Corp) to determine the amount of 5-methylcytosine. […] Data are represented as the mean±SEM (n=8-9). Statistical analysis is a One-way ANOVA for Panel A (F(2,23)=5.67, p=0.0099) followed by uncorrected Fisher's LSD post hoc test and Kruskal-Wallis test for Panel B (Kruskal-Wallis statistic=1.11, p=0.57).

Structure (SMILES)	DNA methylation (5-methylcytosine) in ADK-L cells versus vehicle alone (ADK-L cells)	IC50 (ADK) [nM]	DNA methylation levels in CBZ-treated ADK-S cells compared to ADK-null cells (ADK-S cells; CBZ 24.5 nM, 24 hours after treatment, n=8-9, Kruskal-Wallis p=0.57)	Interaction with ADK (ADK)	DNA methylation levels in ADK-S cells compared to vehicle-treated ADK-S cells (ADK-S cells)
Nc1ncnc2nc(-c3ccc(N4CCOCC4)nc3)cc(-c3cccc(Br)c3)c12 [ABT-702]	Neither ABT-702 nor A-134974 alters DNA methylation	1.7			
NC(=O)N1c2ccccc2C=Cc2ccccc21 [CBZ, Carbamazepine]	does not decrease DNA methylation		not significantly different	does not interact with ADK	
Nc1ncnc2c1c(I)cn2[C@@H]1C[C@H](N)[C@@H](O)[C@H]1O [A-134974]	Neither ABT-702 nor A-134974 alters DNA methylation	0.06			significantly increased
Nc1ncnc2c1c(I)cn2[C@@H]1O[C@H](CO)[C@@H](O)[C@H]1O [5-ITU, 5-iodotubercidin]	significantly decreases DNA methylation				significantly increased
